How the values were obtained:
[1] = molecular target: IDO protease in HeLa cells (Homo sapiens (Human), UniProt P14902); assay: Inhibition of IDO protease in HeLa cells (IFNγ-induced, Trp/Kyn by RapidFire/MS); assay type: cell-based; details: for IC50: HeLa cells, 25 ng/ml IFNγ, 48 hours
Source text: 1) Experimental Materials and Apparatus • HeLa cells (ATCC, Cat. No. CCL-2) • γ interferon IFNγ (R&D, Cat. No. 285-IF-100) • DMEM High Glucose media (Invitrogen, Cat. No. 11965-084) • Fetal bovine serum FBS (Invitrogen, Cat. No. 10100-147) • Trypsin-EDTA (0.050%)(Invitrogen, Cat. No. 25300-054) • Phosphate buffer solution PBS, pH 7.4 (Invitrogen, Cat. No. 10010023) • Penicillin-Streptomycin (P/S) (Invitrogen, Cat. No. 15070063) • L-tryptophan (Trp) (Sigma, Cat. No. T8941) • L-kynurenine (Kyn) (Sigma, Cat. No. K8625) • N′-diformylkynurenine (NFK) (J&K, Cat. No. F700490) • 3-Nitro-L-tyrosine (J&K, Cat. No. N0905) • Acetonitrile (Sigma, Cat. No. 34851) • Dimethylsulfoxide DMSO (Sigma, Cat. No. D8418) • Inhibitor INCB024360 (Selleckchem, Cat. No. S7910) • Inhibitor INCB024360-analog (MedKoo, Cat. No. 205493) • Inhibitor NLG919 (Selleckchem, Cat. No. S7111) • 96 well transparent flat bottom polystyrene cell culture plate (Corning, Cat #3599) • 96 well V-bottom polypropylene plate (PE, Cat #6008290) • 96 well U-shaped bottom polypropylene plate (PE, Cat. No. 6008390) • Multidrop™ distribution box with small metal tip (Thermo, Cat. No. 24073295) • Multidrop™ distribution box of standard tube with metal tip (Thermo, Cat. No. 24072670) • Automatic filling platform (Agilent) • Multidrop™ Combi automatic liquid separator (Thermo) • Centrifugal machine (Eppendorf) • Cell incubator (Thermo) • Cell counter (Thermo) • RapidFire Mass system (Agilent)
2) Experimental Method for Compound Assay
The compound (compounds 4, 8, 9, 78, 91 of the present invention) was dissolved in DMSO to prepare a solution with a concentration of 3 mM, and then 15 μL of the compound solution is added to a 96 well plate, and serially diluted by 3 times dilution to obtain 10 points. 2 μL compound solution or DMSO (for HPE/ZPE) was transferred to a new 96 well plate. HeLa cell suspension was seeded into the cell culture plate with a density of 1×10^4 cells/well. For HPE control well, the cell culture medium for detection was DMEM, including 10% FBS, 1% P/S, and 122 μM Trp; for ZPE control well and the compound wells, the cell culture medium was DMEM, including 10% FBS, 1% P/S, […], and 25 ng/ml IFNγ. 192 μL detection medium prepared as above was added to a 96 well plate. 78 μL DMEM was added to the compound plate and thoroughly mixed, and then 8 μL compound solution diluted with DMEM was transferred to the 96 well plate containing the detection medium. The cell culture plate was taken out, and the cell culture medium was discarded, then 100 μL compound solution mentioned above was transferred to the cell culture plate. The cell culture plate was moved into the cell incubator and kept for 48 hours. When detected, the cell culture plate was taken out, and 50 μL supernatant was transferred to a new 96 well plate, to which was added 200 μL acetonitrile, and the plate was mixed well. The plate was centrifugated at 4° C. for 20 minutes (rotatory speed being 4000 rpm), and 40 μL supernatant was transferred to another 96 well plate, to which was further added 360 μL deionized water containing […] internal reference (3-nitro-L-tyrosine). The plate was fully mixed, and then the sample was detected by RapidFire/MS system. The standards of L-tryptophan (Trp) and L-kynurenine (Kyn) were dissolved in water to obtain a concentration of 10 mM, and the standard curve was performed by three times dilution. The inhibitory ratio was calculated by obtained data, and the IC50 curve was completed by processing the resultant data with Graphpad Prism5 software.

Pharmacokinetics in mice = assay type: in vivo, ICR mice; details: for Cmax: read-out: Blood concentration Cmax; for AUC: read-out: Curve area AUC; for Tmax: read-out: Peak time tmax; for MRT inf: read-out: Retention time MRTinf
Source text: 1) Experimental Materials and Apparatus: • LC-20AD HPLC system (SHIMADZU, Japan) • API4000 Triple quadrupole mass spectrometer (Applied Biosystem, USA) • PhenixWinnolin Pharmacokinetic software (Version 6.3, Certara, USA) • High speed freezing centrifuge (Thermo Fisher Scientific) • Analytical balance (SECURA225D-1CN) • Experimental animals: ICR mice (Chengdu Dashuo Experimental Animal Co., Ltd) • DMA (Sigma) • CMC-Na (Chengdu Kelong Chemical Co., Ltd) • Heparin (Chengdu Kelong Chemical Co., Ltd)
2) Experimental Methods and Results
A solution at concentration of 0.5 mg/mL was prepared. 0.2 ml of the final solution prepared was taken out and stored at −20° C. for concentration determination. Nine healthy adult ICR mice (20-30 g) were fasted overnight (free drinking water) and then administrated at a dosage of 0.2 mL/10 g by gavage. Prior to administration and 0.5, 1, 2, 4, 6, 8, 12, 24 h after administration, 0.1 mL blood was collected from the posterior orbital venous plexus and centrifuged at 4° C. for 5 min to separate the plasma, which was preserved at −20° C. for testing. Then the concentrations of tested compounds in the plasma were determined by LC/MS/MS.

human IDO1 protease = human IDO1 protease (Homo sapiens (Human), UniProt P14902); assay: Inhibitory activity against human IDO1 protease (absorbance test method); assay type: biochemical; details: IDO1 (His-tag) enzyme, absorbance at 320 nm
Description: 1) Experimental Materials and Apparatus: • IDO1 (His-tag) enzyme (BPS Bioscience) • L-tryptophan (Sigma) • Methylene blue (Sigma) • Catalase originated from the liver of cattle (Sigma) • L-ascorbic acid (Sigma) • Glycerol (Sigma) • Potassium dihydrogen phosphate solution (Sigma) • Tween 20 (Sigma) • Automatic sampling platform Liquid handler (Bravo & Echo) • Microplate Reader SpectraMax M5e (Molecular Devices)
2) Test Method of Compounds: The Compounds are Determined by Absorbance Test Method:
The tested compounds and the reference compounds are dissolved in DMSO to prepare a high concentration of storage solution. The stock solution of reference compound was diluted with DMSO to prepare a 100× solution. In the first column of the working plate, 8 μL above tested compounds and 8 μL 100× reference compound were respectively added as the highest concentration, and then the highest concentrations were subjected to three times dilution to obtain 11 concentrations and prepare 100× solution. 0.5 μL solution was transferred from the above plate to the detection plate. […]. For HPE and ZPE control wells, 0.5 μL 100% DMSO was added.
25 μL 2×IDO1 (His-tag) enzyme solution (containing L-ascorbic acid, methylene blue, and catalase) was added to each well. 25 μL reaction solution without IDO1 (His-tag) enzyme was added into HPE control well. The test plate was centrifugated at 1000 rpm for 1 minute to mix well. Then, the test plate was incubated at room temperature for 30 minutes. 25 μL above 2× substrate (L-tryptophan) solution was added to each well. The test plate was centrifugated at 1000 rpm for 1 minute to mix well. The detection plate was placed on ELISA (SpectraMax M5e), the temperature was set at 25° C., and the absorbance (OD value) was measured at 320 nm every 10 minutes till 60 minutes.
Calculating the increase ratio of absorbance: the slope of the absorbance increase curve from 10 min to 60 min is derived from SpectralMax M5e. The inhibition coefficient of compound was calculated: the inhibition ratio of compound=(the absorbance increase ratio of ZPE control well−the absorbance increase ratio of compound well)/(the absorbance increase ratio of ZPE control well−the absorbance increase ratio of HPE control well)×100. Results was analyzed by Prism 5.0.

[2] = ICR, mouse, 10 mg/kg, PO, 10 mpk, plasma

Sequence of human IDO1 protease (P14902 whole entry): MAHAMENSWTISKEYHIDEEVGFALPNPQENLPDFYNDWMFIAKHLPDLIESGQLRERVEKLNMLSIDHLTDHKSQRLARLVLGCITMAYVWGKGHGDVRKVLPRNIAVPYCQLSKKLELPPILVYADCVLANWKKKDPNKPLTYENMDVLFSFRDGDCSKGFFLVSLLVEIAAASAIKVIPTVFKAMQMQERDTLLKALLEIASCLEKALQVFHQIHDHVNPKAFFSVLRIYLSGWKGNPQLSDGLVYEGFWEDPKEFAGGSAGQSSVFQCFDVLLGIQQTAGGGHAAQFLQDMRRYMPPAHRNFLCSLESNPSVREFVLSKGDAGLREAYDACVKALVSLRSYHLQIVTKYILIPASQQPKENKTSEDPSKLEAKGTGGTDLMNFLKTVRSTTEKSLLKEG
Sequence of IDO protease in HeLa cells (P14902 whole entry): as above

SMILES	IC50 [1]	IC50 (human IDO1 protease)	also measured
NS(=O)(=O)N1CC(CNc2nonc2/C(=N/O)Nc2ccc(F)c(Br)c2)C1 [Compound 4, N-(3-Bromo-4-fluorophenyl)-N′-hydroxyl-4-(((1-sulfamoylazetidin-3-yl)methyl)amino)-1,2,5-oxadiazole-3-formamidine]	0.005 µM	0.055 µM	inhibitory activities on IDO protease in HeLa cells (in words) [1]: excellent; half-life time compared with the reference compound INCB-24360 (in words) (Pharmacokinetics in mice): longer half-life time; Cmax (Pharmacokinetics in mice; [2]): 1080 ng/mL; AUC (Pharmacokinetics in mice; [2]): 1760 ng·h/mL; half-life (Pharmacokinetics in mice; ICR, mouse, 10 mg/kg, PO, 10 mpk, plasma, read-out: Half time t1/2 (converted)): 5.06 h; Tmax (Pharmacokinetics in mice; [2]): 0.5 h; MRT inf (Pharmacokinetics in mice; [2]): 3.28 h
NS(=O)(=O)N1CC[C@@H](CNc2nonc2/C(=N/O)Nc2ccc(F)c(Br)c2)C1 [Compound 8, (S)—N-(3-Bromo-4-fluorophenyl)-N′-hydroxyl-4-(((1-sulfamoylpyrrolidine-3-yl)methyl)amino)-1,2,5-oxadiazole-3-formamidine]	0.017 µM	0.112 µM	–
NS(=O)(=O)N1CC[C@H](CNc2nonc2/C(=N/O)Nc2ccc(F)c(Br)c2)C1 [Compound 9, (R)—N-(3-bromo-4-fluorophenyl)-N′-hydroxyl-4-(((1-sulfamoylpyrrolidine-3-yl)methyl)amino)-1,2,5-oxadiazole-3-formamidine]	0.015 µM	0.084 µM	–
CNS(=O)(=O)N1CC(CNc2nonc2C(=NO)Nc2ccc(F)c(Br)c2)C1 [Compound 78]	0.013 µM	0.069 µM	–
NS(=O)(=O)N1CC(F)(CNc2nonc2C(=NO)Nc2ccc(F)c(Br)c2)C1 [Compound 91, (Z)—N-(3-bromo-4-fluorophenyl)-4-(3-fluoro-1-sulfadiazin-3-yl)methyl)amino)-N′-hydroxyl 1,2,5-oxadiazol-3-carboxyoximide]	0.074 µM	–	–
NS(=O)(=O)N1CC(F)(CNc2nonc2/C(=N/O)Nc2ccc(F)c(Br)c2)C1 [Compound 91]	–	0.128 µM	inhibitory activities on IDO protease in HeLa cells (in words) [1]: excellent
NS(=O)(=O)N1CC(CCNc2nonc2/C(=N/O)Nc2ccc(F)c(Br)c2)C1 [Compound 132, (Z)—N-(3-bromo-4-fluorophenyl)-N′-hydroxyl-4-((2-(1-sulfamoylazetidin-3-yl)ethyl)amino)-1,2,5-oxadiazol-3-formamidine]	0.01 µM	–	–
NC(=O)N1CC(CNc2nonc2/C(=N/O)Nc2ccc(F)c(Br)c2)C1 [Compound 140, (Z)—N-(3-bromo-4-fluorophenyl)-N′-hydroxyl-4-(((1-carbamoylazetidin)-3-methyl)amino)-1,2,5-oxadiazol-3-formamidine]	0.075 µM	–	–
NS(=O)(=O)N1CC(CSc2nonc2/C(=N/O)Nc2ccc(F)c(Br)c2)C1 [Compound 148]	0.014 µM	–	–
NS(=O)(=O)N1CC(CCSc2nonc2/C(=N/O)Nc2ccc(F)c(Br)c2)C1 [Compound 149, (Z)—N-(3-bromo-4-fluorophenyl)-N′-hydroxyl-4-((2-(1-sulfamoylazetidin-3-yl)ethyl)thio)-1,2,5-oxadiazol-3-formamidine]	0.018 µM	–	–
[2H]C([2H])(Nc1nonc1/C(=N/O)Nc1ccc(F)c(Br)c1)C1CN(S(N)(=O)=O)C1 [Compound 150, (Z)—N-(3-bromo-4-fluorophenyl)-N′-hydroxyl-4-(((1-sulfadiazin-3-yl)methyl-D2)amino)-1,2,5-oxadiazol-3-carboxyoximide]	0.009 µM	0.081 µM	–
NS(=O)(=O)NCCNc1nonc1C(=NO)Nc1ccc(F)c(Br)c1 [INCB24360, reference compound]	–	–	Cmax (Pharmacokinetics in mice; [2]): 992 ng/mL; AUC (Pharmacokinetics in mice; [2]): 1810 ng·h/mL; Tmax (Pharmacokinetics in mice; [2]): 0.5 h; MRT inf (Pharmacokinetics in mice; [2]): 2.03 h
